# Results reported in patent publication US7763728B2, “Tetrahydropyridothiophenes” (4SC AG, priority 2005, dated 2010).
# Key:
# [1] = tested on: RKO (RKOp27) human colon adenocarcinoma cells; assay: Alamar Blue cell viability assay, anti-proliferative/cytotoxic activity on proliferating (uninduced) RKOp27 cells; format: cell-based; conditions: 72 hours incubation, absence of the inducer Ponasterone A, read-out: IC50 RKO p27 uninduced (proliferating)
# Procedure, shortened: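 RKOp27 subclones seeded at 5000 cells/well, compounds added after 24 h in DMEM/10% FCS, quadruplicates, 72 h at 37 °C, 5% CO2. Alamar Blue fluorescence (ex 544/em 590 nm) normalised to untreated cells (1% DMSO medium) as 100%; IC50 from concentration-effect curves.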
# [2] = tested on: RKO colon adenocarcinoma cells (RKOp27) arrested by the expression of ectopic p27Kip1; assay: Alamar Blue cell viability assay on RKOp27 cells arrested by p27Kip1 expression induced by Ponasterone A; format: cell-based; conditions: Homo sapiens, 72 hours incubation, 10 μM Ponasterone A, read-out: IC50 RKO p27 induced (arrested)
# Procedure, shortened: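 RKOp27 cells, 15000/well, held in DMEM with 10% FCS and with or without 10 μM Ponasterone A to induce p27Kip1 arrest. Compound dilutions added 24 h after seeding, then 72 h at 37 °C in quadruplicate. Alamar Blue fluorescence (544/590 nm) gave % viability relative to untreated cells.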
Compound,IC50 [2],IC50 [1]
"COc1ccc(C)cc1CCC(=O)Nc1sc2c(c1C#N)CCN(C(=O)CCc1cnccc1OC)C2 [Example 41, N-{3-Cyano-6-[3-(4-methoxy-pyridin-3-yl)-propanoyl]-4,5,6,7-tetrahydro-thieno[2,3-c]pyridin-2-yl}-3-(2-methoxy-5-methyl-phenyl)-propionamide]",≥ 40000 nM,300 to 2000 nM
"COc1cccc(C(C)CC(=O)Nc2sc3c(c2C#N)CCN(C(=O)CCc2ccncc2)C3)c1 (racemic) [Example 79, (RS)—N-[3-Cyano-6-(3-pyridin-4-yl-propanoyl)-4,5,6,7-tetrahydro-thieno[2,3-c]pyridin-2-yl]-3-(3-methoxy-phenyl)-butyramide]",> 100000 nM,300 to 2000 nM
"CCCC(=O)N1CCc2c(sc(NC(=O)CCc3ccccc3OC)c2C#N)C1 [Example 91, N-(6-Butyryl-3-cyano-4,5,6,7-tetrahydro-thieno[2,3-c]pyridin-2-yl)-3-(2-methoxy-phenyl)-propionamide]",> 100000 nM,≤ 300 nM
"COc1cccc(CCC(=O)Nc2sc3c(c2C#N)CCN(C(=O)CCCO)C3)c1 [Example 21, N-[3-Cyano-6-(4-hydroxy-butanoyl)-4,5,6,7-tetrahydro-thieno[2,3-c]pyridin-2-yl]-3-(3-methoxy-phenyl)-propionamide]",> 100000 nM,300 to 2000 nM
"CCCC(=O)N1CCc2c(sc(NC(=O)CCc3cccc(OC)c3)c2C#N)C1 [Example 23, N-(6-Butyryl-3-cyano-4,5,6,7-tetrahydro-thieno[2,3-c]pyridin-2-yl)-3-(3-methoxy-phenyl)-propionamide]",> 100000 nM,≤ 300 nM
"COCC(=O)N1CCc2c(sc(NC(=O)CCc3ccccc3OC)c2C#N)C1 [Example 5, N-[3-Cyano-6-(2-methoxy-ethanoyl)-4,5,6,7-tetrahydro-thieno[2,3-c]pyridin-2-yl]-3-(2-methoxy-phenyl)-propionamide]",> 100000 nM,≤ 300 nM
"COc1cccc(CCC(=O)Nc2sc3c(c2C#N)CCN(C(=O)CCc2ccccn2)C3)c1 [Example 16, N-[3-Cyano-6-(3-pyridin-2-yl-propanoyl)-4,5,6,7-tetrahydro-thieno[2,3-c]pyridin-2-yl]-3-(3-methoxy-phenyl)-propionamide]",> 100000 nM,300 to 2000 nM
"COc1cccc(CCC(=O)Nc2sc3c(c2C#N)CCN(C(=O)CC(C)n2ccnc2)C3)c1 (racemic) [Example 57, N-[3-Cyano-6-((RS)-3-imidazol-1-yl-butanoyl)-4,5,6,7-tetrahydro-thieno[2,3-c]pyridin-2-yl]-3-(3-methoxy-phenyl)-propionamide]",≥ 40000 nM,300 to 2000 nM
"COc1ccccc1C(C)CC(=O)Nc1sc2c(c1C#N)CCN(C(=O)Cn1ccnc1)C2 (racemic) [Example 82, (RS)—N-[3-Cyano-6-(2-Imidazol-1-yl-ethanoyl)-4,5,6,7-tetrahydro-thieno[2,3-c]pyridin-2-yl]-3-(2-methoxy-phenyl)-butyramide]",≥ 40000 nM,300 to 2000 nM
"CCOc1ccccc1C(C)CC(=O)Nc1sc2c(c1C#N)CCN(C(=O)CCc1cccnc1)C2 (racemic) [Example 78, (RS)—N-[3-Cyano-6-(3-pyridin-3-yl-propanoyl)-4,5,6,7-tetrahydro-thieno[2,3-c]pyridin-2-yl]-3-(2-ethoxy-phenyl)-butyramide]",≥ 40000 nM,300 to 2000 nM
"COc1cccc(C(C)CC(=O)Nc2sc3c(c2C#N)CCN(C(=O)Cc2cccnc2)C3)c1 (racemic) [Example 64, (RS)—N-[3-Cyano-6-(2-pyridin-3-yl-ethanoyl)-4,5,6,7-tetrahydro-thieno[2,3-c]pyridin-2-yl]-3-(3-methoxy-phenyl)-butyramide]",≥ 40000 nM,300 to 2000 nM
"COc1ccccc1CCC(=O)Nc1sc2c(c1C#N)CCN(C(=O)Cc1cccnc1)C2 [Example 2, N-[3-Cyano-6-(2-pyridin-3-yl-ethanoyl)-4,5,6,7-tetrahydro-thieno[2,3-c]pyridin-2-yl]-3-(2-methoxy-phenyl)-propionamide]",≥ 40000 nM,≤ 300 nM
"COc1cccc(CCC(=O)Nc2sc3c(c2C#N)CCN(C(=O)Cn2cnc(C)c2)C3)c1 [Example 138, N-{3-Cyano-6-[2-(4-methyl-imidazol-1-yl)-ethanoyl]-4,5,6,7-tetrahydro-thieno[2,3-c]pyridin-2-yl}-3-(3-methoxy-phenyl)-propionamide]",≥ 40000 nM,300 to 2000 nM
"COc1ccccc1C(C)CC(=O)Nc1sc2c(c1C#N)CCN(C(=O)CCc1ccncc1)C2 (racemic) [Example 120, (RS)—N-[3-Cyano-6-(3-pyridin-4-yl-propanoyl)-4,5,6,7-tetrahydro-thieno[2,3-c]pyridin-2-yl]-3-(2-methoxy-phenyl)-butyramide]",≥ 10000 nM,≤ 300 nM
"COCCC(=O)N1CCc2c(sc(NC(=O)CCc3cc(C)ccc3OC)c2C#N)C1 [Example 32, N-[3-Cyano-6-(3-methoxy-propanoyl)-4,5,6,7-tetrahydro-thieno[2,3-c]pyridin-2-yl]-3-(2-methoxy-5-methyl-phenyl)-propionamide]",> 100000 nM,300 to 2000 nM
"COc1ccccc1C(C)CC(=O)Nc1sc2c(c1C#N)CCN(C(=O)CCn1ccnc1)C2 (racemic) [Example 99, (RS)—N-[3-Cyano-6-(3-imidazol-1-yl-propanoyl)-4,5,6,7-tetrahydro-thieno[2,3-c]pyridin-2-yl]-3-(2-methoxy-phenyl)-butyramide]",≥ 40000 nM,300 to 2000 nM
"COc1ccccc1CCC(=O)Nc1sc2c(c1C#N)CCN(C(=O)COC(C)=O)C2 [Example 7, Acetic acid 2-{3-cyano-2-[3-(2-methoxy-phenyl)-propanoylamino]-4,7-dihydro-5H-thieno[2,3-c]pyridin-6-yl}-2-oxo-ethyl ester]",> 100000 nM,≤ 300 nM

# Second part, led by results:
IC50 [2],Compound,IC50 [1]
≥ 10000 nM,"COc1ccccc1CCC(=O)Nc1sc2c(c1C#N)CCN(C(=O)CCc1nccn1C)C2 [Example 116, N-{3-Cyano-6-[3-(1-methyl-1H-imidazol-2-yl)-propanoyl]-4,5,6,7-tetrahydro-thieno[2,3-c]pyridin-2-yl}-3-(2-methoxy-phenyl)-propionamide]",≤ 300 nM
≥ 10000 nM,"COc1ccc(C)cc1CCC(=O)Nc1sc2c(c1C#N)CCN(C(=O)CCc1ccncc1)C2 [Example 124, N-[3-Cyano-6-(3-pyridin-4-yl-propanoyl)-4,5,6,7-tetrahydro-thieno[2,3-c]pyridin-2-yl]-3-(2-methoxy-5-methyl-phenyl)-propionamide]",300 to 2000 nM
≥ 10000 nM,"COc1ccccc1CCC(=O)Nc1sc2c(c1C#N)CCN(C(=O)CCn1ccnc1C)C2 [Example 108, N-{3Cyano-6-[3-(2-methyl-imidazol-1-yl)-propanoyl]-4,5,6,7-tetrahydro-thieno[2,3-c]pyridin-2-yl}-3-(2-methoxy-phenyl)-propionamide]",300 to 2000 nM
≥ 10000 nM,"CCOc1ccccc1C(C)CC(=O)Nc1sc2c(c1C#N)CCN(C(=O)Cn1cc(C)nc1C)C2 (racemic) [Example 145, (RS)—N-{3-Cyano-6-[2-(2,4-dimethyl-imidazol-1-yl)-ethanoyl]-4,5,6,7-tetrahydro-thieno[2,3-c]pyridin-2-yl}-3-(2-ethoxy-phenyl)-butyramide]",≤ 300 nM
≥ 10000 nM,"CCOc1ccccc1CCC(=O)Nc1sc2c(c1C#N)CCN(C(=O)Cc1ccccn1)C2 [Example 26, N-[3-Cyano-6-(2-pyridin-2-yl-ethanoyl)-4,5,6,7-tetrahydro-thieno[2,3-c]pyridin-2-yl]-3-(2-ethoxy-phenyl)-propionamide]",≤ 300 nM
≥ 10000 nM,"CCOc1ccccc1CCC(=O)Nc1sc2c(c1C#N)CCN(C(=O)Cn1cc(C)nc1C)C2 [Example 148, N-{3-Cyano-6-[2-(2,4-dimethyl-imidazol-1-yl)-ethanoyl]-4,5,6,7-tetrahydro-thieno[2,3-c]pyridin-2-yl}-3-(2-ethoxy-phenyl)-propionamide]",≤ 300 nM
≥ 10000 nM,CCOc1ccccc1CCC(=O)Nc1sc2c(c1C#N)CCN(C(=O)CCc1ccncc1)C2 [Example 123],≤ 300 nM
≥ 10000 nM,"COc1ccc(C)cc1CCC(=O)Nc1sc2c(c1C#N)CCN(C(=O)CCc1nccn1C)C2 [Example 118, N-{3-Cyano-6-[3-(1-methyl-1H-imidazol-2-yl)-propanoyl]-4,5,6,7-tetrahydro-thieno[2,3-c]pyridin-2-yl}-3-(2-methoxy-5-methyl-phenyl)-propionamide]",300 to 2000 nM
≥ 10000 nM,"COc1cccc(CCC(=O)Nc2sc3c(c2C#N)CCN(C(=O)CCn2cnc(C)c2)C3)c1 [Example 154, N-{3-Cyano-6-[3-(4-methyl-imidazol-1-yl)-propanoyl]-4,5,6,7-tetrahydro-thieno[2,3-c]pyridin-2-yl}-3-(3-methoxy-phenyl)-propionamide]",300 to 2000 nM
